# Values of other authors, collected in US20040024003A1, “Flat medicinal preparation for transmucosal administration of oxycodon or a comparable active ingredient in the oral cavity, for use in pain therapy and in addiction therapy” (priority 1999, published 2004).
# Legend:
# [1] = in vivo
structure (smiles),measurement,setting,value
COc1ccc2c3c1O[C@H]1C(=O)CC[C@@]4(O)[C@@H](C2)N(C)CC[C@]314 [oxycodone],average duration of action,[1],4 to 6 h
same,time taken to enter the blood,normal peroral administration,15 to 30 min
same,bioavailable fraction following peroral administration,peroral administration,two thirds
